For 1 molecule, Activity results are on record in ChEMBL document CHEMBL3044997, “Cytotoxic Effect of Coscinium Fenestratrum (Gaertn.) Colebr. and its Active Principle Berberine on L929 Cells” (2005).

Type in all cases: functional
Assay [1] concerns L929. The experiment in a line: Cytotoxicity against Mus musculus (mouse) L929 cells assessed as metabolically active cells at 100 ug/ml after 24 hr by MTT assay relative to control.
Assay [2] has as its system L929. Briefly: Cytotoxicity against Mus musculus (mouse) L929 cells assessed as metabolically active cells at 50 ug/ml after 24 hr by MTT assay relative to control. (In general: Tetrazolium dyes change colour on reduction, which living cells bring about.)
For assay [3], the system named is L929. The experiment in a line: Cytotoxicity against Mus musculus (mouse) L929 cells assessed as metabolically active cells at 200 ug/ml after 24 hr by MTT assay relative to control.
The subject of assay [4] is L929. Briefly: Cytotoxicity against Mus musculus (mouse) L929 cells assessed as metabolically active cells at 150 ug/ml after 24 hr by MTT assay relative to control.

Consider `COc1ccc2cc3[n+](cc2c1OC)CCc1cc2c(cc1-3)OCO2.[Cl-]` [BERBERINE CHLORIDE], for which the Activity is 67.41% with L929 [1], 106.45% in the assay with L929 [2], 23.57% in the assay with L929 [3] and 41.77% with L929 [4].
